Source: patent US20260265694A1, “USE OF A VITISIN COMPOUND FOR THE PRODUCTION OF HEMATOPOIETIC CELLS” (ETABLISSEMENT FRANCAIS DU SANG, priority 2022, published 2026)

Tested on: CD34+ cells from peripheral blood
Experiment: AMPLIFICATION PROTOCOL: ex vivo amplification of hematopoietic progenitors
Assay type: cell-based, human
Details: 10 μM; for effect on the proportion and total amount of CD34+CD133neg cells: FIG. 2
Protocol: This is a strategy for the amplification of hematopoietic progenitors. The culture is formed as follows: CD34^+ cells from peripheral blood are isolated (as indicated in section II.A.1), and cultured for 12 days in Stem Span II medium (Stem Cell Technologies) supplemented with cytokines: SCF 100 ng/mL, FLT3-L 100 ng/mL, TPO 20 ng/mL, G-CSF 10 ng/mL. The amplification product is analyzed by quantification of proliferation (count on Malassez slides) and phenotypic analysis of CD34^+ cell subpopulations by flow cytometry. […] Vitisin B is also compared with the following stilbene-type molecules at 10 μM concentration: Resveratrol, Pallidol, E-Viniferin, Ampelopsin, Oxyresveratrol, Picateatannol, Gnetol
At the end of the hematopoietic cell amplification protocol, an analysis of cell proliferation and amplification of immature and committed cell populations is performed.
Cell proliferation is evaluated by counting cells on Malassez slides with Trypan blue exclusion of dead cells.
The amplification of cell populations is based on a phenotypic analysis relating to the evolution of the expression of membrane markers CD34 and CD133 by flow cytometry. These markers make it possible to define more or less immature cell populations organized hierarchically as follows: CD34^+CD133^+->CD34^+CD133^neg->CD34^negCD133^neg. To this end, cells are incubated with anti-CD34 (1:100,000) (BD Pharmingen) and anti-CD133 (1:100,000) (BD Pharmingen) antibodies for 15 minutes. The cells are then rinsed with a PBS solution and centrifuged (430×g, 10 min, 4° C.). After resuspension of the cell pellets in PBS, the cells are analyzed by flow cytometry (FACSCantoll, Becton Dickinson, San Jose, CA).
The proportions of each phenotypic population thus observed and the total amount of cells make it possible to calculate the rate of amplification of the most immature cells (CD34^+CD133+) compared with the amplification of more committed progenitors (CD34^+CD133^neg and CD34^negCD133^neg).

Structure (SMILES) | effect on the proportion and total amount of CD34+CD133neg cells | amplification of the CD34+CD133neg subpopulation (erythrocyte potential) (FIG. 1)
Oc1cc(O)cc(/C=C/c2c(O)cccc2O)c1 [GNETOL, Gnetol] | only vitisin B has a convincing effect | 
Oc1cc(O)cc(/C=C/c2ccc(O)cc2O)c1 [OXYRESVERATROL, Oxyresveratrol] | only vitisin B has a convincing effect | 
Oc1ccc(/C=C/c2cc(O)cc3c2[C@@H](c2cc(O)cc(O)c2)[C@H](c2ccc(O)cc2)O3)cc1 [E-VINIFERIN, E-Viniferin] | only vitisin B has a convincing effect | 
Oc1ccc(C=Cc2cc(O)cc(O)c2)cc1 [RESVERATROL, Resveratrol] | only vitisin B has a convincing effect | no effect
O=C1c2c(O)cc(O)cc2O[C@H](c2cc(O)c(O)c(O)c2)[C@H]1O [AMPELOPSIN, Ampelopsin] | only vitisin B has a convincing effect | 
